Reference: patent US9957295B2, “Peptides inhibiting cold-inducible RNA binding protein activity” (The Feinstein Institute for Medical Research, priority 2013, dated 2018)
“Also recorded” adds a separate entry of the source.

Columns and labels:
[1] = tested on: LPS-induced TNF-α production in differentiated THP-1 cells; experiment: Peptide inhibition of LPS-induced TNF-α production in differentiated THP-1 cells (ELISA); assay type: cell-based, human
Method: Human monocytic THP-1 cells (American Type Culture Collection, Manassas, Va.), were seeded in suspension into T75 tissue culture flask at a density of 1.5×10^6 cells and cultured with RPMI-1640 medium supplemented with 10% heat-inactivated fetal bovine serum, 1% penicillin/streptomycin, 2 mM glutamine and additional 0.05 mM β-mercaptoethanol at 37° C. in a humidified incubator with 5% CO2.
Cells were plated at a density of 5×10^4 per well in 96-well tissue culture plate and incubated with phorbol 12-myristate 13-acetate (20 ng/ml) for 48 h to become differentiated macrophages-like cells before experiment. Cells were used between passages 5 and 12. Cells were pretreated with indicated concentrations of CIRP-derived peptides C22 (SEQ ID NO: 13) or C23 (SEQ ID NO: 12) for 1 h, and then incubated in the absence or presence rmCIRP or LPS (from E. coli O111:B4, Sigma St. Louis, Mo.) with Opti-MEM-medium for 6 h. The cell-free supernatants were assayed for TNF-α by ELISA.
Supernatants were measured for TNF-α levels using a commercially available enzyme-linked immunosorbent assay (ELISA) kits-human TNF-α set (BioSource International, Camarillo, Calif.) according to the manufacturer's instruction.
The CIRP-derived peptides were also found to modulate LPS-induced TNF-α release in differentiated THP-1 cells. […] The doses of C22 or C23 at 2 ng/ml, equivalent to 1.3 pmol/ml and LPS at 10 ng/ml, equivalent to 0.67 pmol/ml, peptides and LPS molar ratios at 2:1 were used to treat cells.

rhMD2 = target: T1, rhMD2 (Homo sapiens, UniProt Q9Y6Y9); experiment: SPR binding to immobilized rhMD2; details: oligopeptides passed over immobilized rhMD2
T1 construct: Glu17-Asn160); 10-His (C); purchased R&D Systems; host or cells: E. coli
T1 sequence (Q9Y6Y9 17-160): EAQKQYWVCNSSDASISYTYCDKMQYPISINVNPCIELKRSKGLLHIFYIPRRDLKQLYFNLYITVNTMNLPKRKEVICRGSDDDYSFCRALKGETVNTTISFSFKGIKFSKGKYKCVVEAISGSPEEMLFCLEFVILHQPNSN
Method: Analysis of protein-protein and peptide-protein interactions were conducted using the BIAcore T200 instrument (GE Healthcare). Binding reactions were performed in 1×PBS buffer containing 0.01% Tween-20 (pH 7.4). The CM5 dextran chip (flow cell-2) was first activated by injection with 89 μl of 0.1 M […] and 0.1 M N-hydroxysuccinimide. An aliquot of 200 μl of 5 μg/ml of the ligand diluted in 10 mM sodium acetate (pH 4.5) was injected into flow cell-2 of the CM5 chip for immobilization. Next, 135 μl of 1 M ethanolamine (pH 8.2) was then injected to block the remaining active sites. The flow cell-1 without coating with the ligand was used as a control to evaluate nonspecific binding. The binding analyses were performed at flow rate of 30 μl/min at 25° C. To evaluate the binding, the analyte (ranging from 62.5 nM to 1.0 μM for kinetics analysis or 0.5 μM for yes/no binding analysis) was injected into flow cell-1 and -2 and the association of analyte and ligand was recorded respectively by surface plasmon resonance. The signal from the blank channel (flow cell-1) was subtracted from the channel (flow-cell 2) coated with the ligand. Data were analyzed by the BIAcore T200 Evaluation Software. For all samples, a blank injection with buffer alone was subtracted from the resulting reaction surface data. Data were globally fitted to the Lagmuir model for a 1:1 binding.
Surface plasmon resonance (SPR) analysis was utilized to determine the physical interaction and binding affinity between rhCIRP and pattern-recognition receptors and MD2. […] The sensorgrams show association and dissociation of analyte at the indicated concentration passed over to the immobilized ligand on the sensor chip, indicated as analyte/ligand on top of each diagram. […] The region of CIRP that binds to MD2 was determined via the synthesis of 32 oligopeptides (15-mer) covering the entire human CIRP sequence. The oligopeptides were passed over immobilized rhMD2 on the BIAcore instrument, followed by subsequent performance of a series of SPR analyses. Three oligopeptides with high binding affinity were indicated. […] Three oligopeptides, aa 101-115, 106-120 (C22), and 111-125 (C23) bound to rhMD2 with high affinity (FIG. 14 and FIG. 19).

septic mice (CLP) = experiment: Mouse CLP severe sepsis survival study; assay type: in vivo
Method: Mice were subjected to CLP and treated immediately after operation with the antibiotic imipenem ([…] BW) and resuscitative fluid. At 2 hours after CLP, mice were administered C23 (8 mg/kg BW) or an equivalent volume of normal saline (vehicle) via the internal jugular vein. Survival was then assessed every 12 hours.

mice subjected to CLP = experiment: Mouse CLP sepsis, markers 24 hours post-CLP; assay type: in vivo; details: 8 mg/kg 2 hours after CLP
Method: Mice subjected to CLP were treated 2 hours later with the oligopeptide C23 (8 mg/kg) or saline.
In FIGS. 23A through 23C: Mean+/−SD; n=4-8/group; *P<0.05 vs. sham, #P<0.05 vs. vehicle, one-way ANOVA. mRNA amounts are measured by qPCR; protein levels are measured by ELISA.

[2] = tested on: MLVEC stimulated with rmCIRP; experiment: rmCIRP-stimulated mouse lung vascular endothelial cells (MLVEC); assay type: cell-based; details: C23 200 ng/ml
Method: MLVEC were treated with rmCIRP in the presence of C23 or non-specific oligopeptide P5 (negative control) for 4 hours. Cells were harvested, lysed and the cell lysate analyzed by SDS-PAGE and Western blotting (immunodetection). Referring to FIG. 23A, ICAM-1 expression is abrogated in the presence of 200 ng/ml of the oligopeptide C23.
Similarly, the release of IL-1beta by MLVEC stimulated by rmCIRP was blocked (as determined by ELISA) when 200 ng/ml of the oligopeptide C23 was added to the media, as shown in FIG. 23B. (For FIGS. 23A and 23B: Mean+/−SD, n=3, *P<0.05 vs. groups without C23.)

[3] = tested on: rmCIRP-induced TNF-α production, RAW 264.7 cells; experiment: Polymyxin B on rmCIRP-induced TNF-α production in RAW 264.7 cells; assay type: cell-based, murine; details: PMB 120 U/ml, rmCIRP 1.5 μg/ml, 8 hours
Method: (§1) Murine macrophage-like RAW 264.7 cells were obtained from ATCC (American Type Culture Collection, Manassas, Va.), and were grown in Dulbecco's Modified Eagle's Medium (DMEM, Life Technologies, Grand Island, N.Y.) containing 10% (vol/vol) FBS (heat-inactivated at 56° C. for 30 min), 100 U/ml penicillin, 100 μg/ml streptomycin and 2 mM glutamine. Cells were re-suspended in medium and incubated in 6 or 48-well tissue-culture plates overnight in a humidified incubator (37° C., 5% CO2). In the experiments, cell monolayers were stimulated with or without recombinant CIRP at various indicated concentrations and for various indicated times. The cell-free supernatants were assayed for TNF-α by ELISA or for HMGB1 by western blot analysis.
(§2) To conduct this experiment, rmCIRP (1.5 μg/ml or LPS (10 ng/ml) was treated with polymyxin B (PMB, 120 U/ml) or heated at 80° C. for 30 min before being added to RAW 264.7 cells for 8 hours. *P<0.05 vs. rmCIRP; #P<0.05 vs. LPS.

[4] = tested on: LPS-induced TNF-α release, RAW 264.7 cells; experiment: Polymyxin B on LPS-induced TNF-α release from RAW 264.7 cells; assay type: cell-based, murine; details: PMB 120 U/ml, LPS 10 ng/ml, 8 hours
Method: as §1, §2

TLR4 = TLR4 (Homo sapiens, UniProt O00206); details: literature; read-out: KD, binding to TLR4; cited from earlier work
Chain of TLR4 (O00206 24-631 limits assumed, species assumed): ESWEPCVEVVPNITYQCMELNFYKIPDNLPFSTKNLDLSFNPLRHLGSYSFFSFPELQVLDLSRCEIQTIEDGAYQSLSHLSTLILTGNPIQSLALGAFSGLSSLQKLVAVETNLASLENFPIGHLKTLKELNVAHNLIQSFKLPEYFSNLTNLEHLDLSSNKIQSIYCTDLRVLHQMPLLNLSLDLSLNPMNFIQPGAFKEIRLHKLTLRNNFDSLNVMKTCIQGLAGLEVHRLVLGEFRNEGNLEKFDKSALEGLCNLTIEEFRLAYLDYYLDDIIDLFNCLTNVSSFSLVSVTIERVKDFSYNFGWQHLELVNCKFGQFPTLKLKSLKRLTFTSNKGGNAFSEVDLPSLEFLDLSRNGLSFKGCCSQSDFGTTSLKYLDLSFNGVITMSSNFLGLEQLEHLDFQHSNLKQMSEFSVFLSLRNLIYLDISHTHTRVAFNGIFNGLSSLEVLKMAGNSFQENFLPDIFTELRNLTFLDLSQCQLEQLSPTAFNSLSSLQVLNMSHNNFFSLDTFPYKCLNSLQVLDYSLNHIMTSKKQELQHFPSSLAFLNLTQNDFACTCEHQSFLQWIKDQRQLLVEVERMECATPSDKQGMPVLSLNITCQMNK

THP-1 cells = experiment: TNF-α release from differentiated THP-1 cells stimulated with recombinant proteins; assay type: cell-based, human; details: 0.3 μg/ml each protein, 8 h, ELISA
Method: As with the murine model, the stimulation of TNF-α, release by rCIRP in a human model was studied. […] These experiments were conducted by incubating differentiated human THP-1 cells with rhCIRP or rmCIRP at the indicated concentrations for 4 h. *P<0.05 vs. no CIRP. Similarly, human PBMC were incubated with the indicated concentrations of rhCIRP for 8 h. *P<0.05 vs. no rhCIRP. Thus, stimulation of cytokine release by CIRP was not attributable to LPS contamination. Furthermore, CIRP-induced cytokine activation was conserved between rodents and humans.
rmCIRP induced TNF-α and HMGB1 release in macrophages (FIGS. 10a, b and c). It was reported that HMGB1 can also stimulate TNF-α release (Andersson, U., et al. High mobility group 1 protein (HMG-1) stimulates proinflammatory cytokine synthesis in human monocytes. J. Exp. Med. 192, 565-570 (2000)). The relationship between CIRP and HMGB1 on stimulating TNF-α release was analyzed by applying respective neutralizing antibodies. […] After 4 h, TNF-α levels in conditioned medium (CM) were assayed by ELISA. Data are mean±s.e.m. from three independent experiments. *P<0.05 vs. rmCIRP+ control IgG. In FIG. 16D, RAW 264.7 cells were pre-incubated with rabbit control IgG or anti-CIRP antibodies at indicated dilutions of 1 mg/ml for 20 min before adding 1.0 μg/ml rmCIRP. After 4 h, TNF-α levels in CM were assayed by ELISA. Data are mean±s.e.m. from three independent experiments. *P<0.05 vs. rmCIRP+ control IgG. THP-1 cells were incubated with 4 μg/ml of anti-CIRP antibodies, anti-HMGB1 antibodies, or non-immunized control IgG for 1 h prior to adding rmCIRP (0.3 μg/ml), rmHMGB1 (0.3 μg/ml), or rmCIRP/rmHMGB1 (0.3 μg/ml, 0.3 μg/ml) for 8 h. *P<0.05 vs. rmCIRP; #P<0.05 vs. rmHMGB1. […] Furthermore, rmCIRP, rmHMGB1, and rmCIRP plus rmHMGB1 induced TNF-α levels of 0.8, 0.6, and 1.6 ng/ml, respectively. […] TNF-α levels in all collected CM were assayed by ELISA. Data are mean±s.e.m. from three or four independent experiments.
Murine macrophage-like RAW 264.7 cells and human monocyte THP-1 cells were obtained from ATCC (Manassas, Va.). […]

**Q.** What does the source list for “GGRGRGRGFSRGGGD (fragment of CIRP) [C22, 15-mer oligopeptide derived from human CIRP]”?
**A.** effect on LPS-induced TNF-α release in THP-1 cells (in words) [1]: inhibit; binding affinity of 15-mer oligopeptides to rhMD2 (in words) (rhMD2): high affinity

**Q.** Which “effect on LPS-induced TNF-α release in THP-1 cells (in words)” value [1] does the source give for “GRGFSRGGGDRGYGG (fragment of CIRP) [C23, 15-mer oligopeptide derived from human CIRP]” here?
**A.** The value was “inhibit”.

**Q.** And the “binding affinity of 15-mer oligopeptides to rhMD2 (in words)” value (rhMD2)?
**A.** The value was “high affinity; also recorded: highest affinity”.

**Q.** What about the “survival (Kaplan-Meier, in words)” value (septic mice (CLP); 8 mg/kg BW 2 hours after CLP, all vehicle mice died within 48 hours) of the same molecule?
**A.** Its value is “some of C23-treated mice lived longer”.

**Q.** And the average survival time (septic mice (CLP); 8 mg/kg BW via internal jugular vein 2 hours after CLP, with imipenem)?
**A.** The average survival time was 44.2 h.

**Q.** What about the “serum levels of TNF-α and IL-6” value (mice subjected to CLP) of the same molecule?
**A.** Its value is “lower”.

**Q.** What about the “expression of E-selectin, ICAM-1, TNF-α and IL-1β in the lungs” value (mice subjected to CLP; 24 hours post-CLP) of the same molecule?
**A.** Its value is “significant decrease”.

**Q.** What about the “ICAM-1 expression in MLVEC” value ([2]; 4 hours, Western blot) of the same molecule?
**A.** Its value is “abrogated”.

**Q.** And the “release of IL-1beta by MLVEC” value ([2]; ELISA)?
**A.** The value was “blocked”.

**Q.** What does the source list for Polymyxin B?
**A.** effect on rmCIRP-induced TNF-α production [3]: did not interfere; inhibition of LPS-induced TNF-α release [4]: 84%

**Q.** With “RGFFRGGRGRGRGFS (fragment of CIRP) [C21, 15-mer oligopeptide derived from human CIRP]” as the molecule, how does the “effect on LPS-induced TNF-α release in THP-1 cells (in words)” value [1] read?
**A.** Its value is “does not suppress”.

**Q.** What about the “binding affinity of 15-mer oligopeptides to rhMD2 (in words)” value (rhMD2) of the same molecule?
**A.** The value was “high affinity”.

B1: rhMD2: recombinant human MD2 (Glu17-Asn160) with 10-His tag, expressed from E. coli, R&D Systems (protein)
chain: EAQKQYWVCNSSDASISYTYCDKMQYPISINVNPCIELKRSKGLLHIFYIPRRDLKQLYFNLYITVNTMNLPKRKEVICRGSDDDYSFCRALKGETVNTTISFSFKGIKFSKGKYKCVVEAISGSPEEMLFCLEFVILHQPNSNHHHHHHHHHH
**Q.** For B1, which Kd (TLR4) is on record?
**A.** Its Kd is 62.9 nM.

B2: rmHMGB1: recombinant HMGB1 produced as in Yang et al. 2004 (protein, UniProt P63158 1-215, looked up)
High mobility group protein B1: MGKGDPKKPRGKMSSYAFFVQTCREEHKKKHPDASVNFSEFSKKCSERWKTMSAKEKGKFEDMAKADKARYEREMKTYIPPKGETKKKFKDPNAPKRPPSAFFLFCSEYRPKIKGEHPGLSIGDVAKKLGEMWNNTAADDKQPYEKKAAKLKEKYEKDIAAYRAKGKPDAAKKGVVKAEKSKKKKEEEDDEEDEEDEEEEEEEEDEDEEEDDDDE
**Q.** Which “induced TNF-α levels” value (THP-1 cells) does the source give for B2 here?
**A.** The value was 0.6 ng/mL.
